The source made the active and inactive calls. The calls are words filed in the database; no cut-off is given here.
Key:
[1] = Inhibition of Methicillin-resistant Staphylococcus aureus COL TarO assessed as suppression of bacteriophageK-mediated cell lysis; parameters: species or system Staphylococcus aureus subsp. aureus COL
[2] = test system: Staphylococcus aureus subsp. aureus COL; test: Inhibition of Staphylococcus aureus COL TarO assessed as concentration of compound for potentiation of action of imipenem-mediated bacterial growth inhibition
[3] = Binding affinity to Methicillin-resistant Staphylococcus aureus COL TarG assessed as suppression of targocil-mediated bacterial growth inhibition after 20 hrs in presence of L-638; parameters: species or system Staphylococcus aureus subsp. aureus COL
Staphylococcus aureus = test: Inhibition of Methicillin-resistant Staphylococcus aureus TarO assessed as percentage of MRSA MITC<=25 uM for 25 isolates; parameters: scale not given: the % may be the effect or the level left
[4] = test system: Staphylococcus epidermidis; test: Inhibition of Methicillin-resistant Staphylococcus epidermidis TarO assessed as percentage of MRSE MITC<=25 uM for 25 isolates; parameters: scale not given: the % may be the effect or the level left
[5] = Inhibition of TarA (unknown origin) at 200 uM
[6] = Inhibition of mnaA (unknown origin) at 200 uM
[7] = Inhibition of Staphylococcus aureus TarO; parameters: species or system Staphylococcus aureus subsp. aureus COL

| SMILES | EC50 [1] [µM] | MITC95 [2] [µM] | EC50 [3] [µM] | Activity (Staphylococcus aureus) [%] | Activity [4] [%] | inhibition [5] | inhibition [6] | IC50 [7] [µM] |
| --- | --- | --- | --- | --- | --- | --- | --- | --- |
| CCN(C(=O)CCn1c(C2CCCCC2)nc2ccccc21)C1CCCCCC1 | 200 | 4.7 | 200 |  |  |  |  |  |
| CCN(C(=O)CCn1c(C2CCC(C(C)(C)C)CC2)nc2ccccc21)C1CCCCC1 (stereo not given) | 0.25 | 0.015 | 0.05 |  |  |  |  |  |
| O=C(CCn1c(C2CCCCC2)nc2ccccc21)NC1CCCCC1 | 200 | 25 | 138 |  |  |  |  |  |
| CCN(C(=O)CCn1c2cccc(Br)c2nc1[C@H]1CC[C@H](CC)CC1)C1CCCCC1 | 3.4 | 0.3 | 1.3 | 68 | 83 |  |  |  |
| CCC1CCN(c2nc3ccccc3n2CCC(=O)N(CC)C2CCCCC2)CC1 | 0.39 | 0.1 | 0.22 |  |  |  |  |  |
| CCN(C(=O)CCn1c(C2CCCCC2)nc2ccccc21)c1ccccc1 | 200 | 50 | 200 |  |  |  |  |  |
| CCN(C(=O)CCn1c(N2CCCCC2)nc2ccccc21)C1CCCCC1 | > 200 | 4.7 | 7 |  |  |  |  |  |
| CCN(C(=O)CCn1c(N2CCC(C(C)(C)C)CC2)nc2ccccc21)C1CCCCC1 | 0.25 | 0.016 | 0.13 | 76 | 29 |  |  |  |
| CCN(C(=O)CCn1c2cccc(C)c2nc1[C@H]1CC[C@H](CC)CC1)C1CCCCC1 | 0.9 | 0.1 | 0.8 | 68 | 92 |  |  |  |
| CCN(C(=O)CCn1c2cc(Br)ccc2nc1[C@H]1CC[C@H](CC)CC1)C1CCCCC1 | 0.24 | 0.031 | 0.33 | 68 | 42 |  |  |  |
| CCN(C(=O)CCn1c2ccc(Br)cc2nc1[C@H]1CC[C@H](CC)CC1)C1CCCCC1 | 0.027 | 0.004 | 0.015 | 80 | 46 |  |  |  |
| CC1(C)C2CC[C@]1(C)[C@@H](NC(=O)CCn1c(C3CCNCC3)nc3ccccc31)C2 | > 200 | > 200 | > 200 |  |  |  |  |  |
| CCCN(C(=O)CCn1c(C2CCCCC2)nc2ccccc21)C1CCCCC1 | 200 | 6.2 | 7.8 |  |  |  |  |  |
| CCN(C(=O)CCn1c(N2CCC(C)CC2)nc2ccccc21)C1CCCCC1 | 3.8 | 1.3 | 0.91 |  |  |  |  |  |
| CC1(C)C2CC[C@]1(C)[C@@H](NC(=O)CCn1c(C3CCN(S(C)(=O)=O)CC3)nc3ccccc31)C2 | > 200 | > 200 | > 200 |  |  |  |  |  |
| CCC1CCC(c2nc3ccccc3n2CCC(=O)N(CC)C2CCCCC2)CC1 (stereo not given) | 0.22 | 0.03 | 0.24 |  |  |  |  |  |
| CCN(C(=O)CCn1c(C2CCCCC2)nc2ccccc21)C1CCCCC1 | 10.1 | 1.9 | 6.2 |  |  |  |  |  |
| CCN(C(=O)CCn1c(C2CCCCC2)nc2ccccc21)C1CCCC1 | 200 | 12.5 | 29.7 |  |  |  |  |  |
| CC1(C)[C@@H]2CC[C@@]1(C)[C@@H](NC(=O)CCn1c(C3CCCCC3)nc3ccccc31)C2 | 178 | 16.7 | 57.7 |  |  |  |  |  |
| CC(C)(C)OC(=O)N1CCC(c2nc3ccccc3n2CCC(=O)N[C@H]2CC3CC[C@@]2(C)C3(C)C)CC1 | 162 | 9.4 | 58.7 |  |  |  |  |  |
| CN(C(=O)CCn1c(C2CCCCC2)nc2ccccc21)C1CCCCC1 | 25 | 4.7 | 11.4 |  |  |  |  |  |
| CCN1CCC(c2nc3ccccc3n2CCC(=O)N[C@H]2CC3CC[C@@]2(C)C3(C)C)CC1 | > 200 | > 200 | > 200 |  |  |  |  |  |
| CC1(C)[C@@H]2CC[C@@]1(C)[C@H](NC(=O)CCn1c(C3CCCCC3)nc3ccccc31)C2 | 7.9 | 1.6 | 2.4 |  |  | inactive | inactive | 0.4 |
| CC(=O)N1CCC(c2nc3ccccc3n2CCC(=O)N[C@H]2CC3CC[C@@]2(C)C3(C)C)CC1 | > 200 | > 200 | > 200 |  |  |  |  |  |

— ChEMBL document CHEMBL4425162, “Discovery of potent wall teichoic acid early stage inhibitors” (Bioorg Med Chem Lett, 2016)
